Experimental data taken from ChEMBL document CHEMBL4118143, “Discovery of dimethyl pent-4-ynoic acid derivatives, as potent and orally bioavailable DGAT1 inhibitors that suppress body weight in diet-induced mouse obesity model” (Bioorg Med Chem Lett, 2018).
In brackets after ≈: the same amount, converted by molar mass. Each block holds one compound with its values, some of them ahead of it. Activity calls are given as the source filed them. No cut-off for these calls is given here.

What was measured:
[1] = target: T1, Diacylglycerol O-acyltransferase 1 (Mus musculus, UniProt Q9Z2A7); assay: Inhibition of mouse DGAT1 expressed in insect cell membranes using diacylglycerol/[14C]-oleoyl-CoA as substrate preincubated for 10 mins followed by [14C]-oleoyl-CoA addition measured after 15 mins by scintillation counting method
T1 sequence (Q9Z2A7 whole entry): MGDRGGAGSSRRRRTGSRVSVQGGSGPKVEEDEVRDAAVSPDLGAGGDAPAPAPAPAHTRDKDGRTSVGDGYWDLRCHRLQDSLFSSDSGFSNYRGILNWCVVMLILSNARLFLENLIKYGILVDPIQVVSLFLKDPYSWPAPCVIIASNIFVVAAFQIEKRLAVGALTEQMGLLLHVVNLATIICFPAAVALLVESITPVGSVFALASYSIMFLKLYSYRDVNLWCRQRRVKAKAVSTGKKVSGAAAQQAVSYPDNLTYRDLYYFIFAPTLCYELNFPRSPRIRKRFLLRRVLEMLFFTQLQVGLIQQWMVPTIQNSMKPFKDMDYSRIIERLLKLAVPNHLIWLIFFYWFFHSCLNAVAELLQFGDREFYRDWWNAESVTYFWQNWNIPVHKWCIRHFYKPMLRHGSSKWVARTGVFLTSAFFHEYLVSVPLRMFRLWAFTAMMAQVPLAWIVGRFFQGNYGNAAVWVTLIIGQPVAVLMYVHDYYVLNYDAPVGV

[2] = Cmax in Sprague-Dawley rat at 10 mg/kg, po; type: ADME, organism-based; design: dose 10 mg/kg, route oral; conditions: in vivo
[3] = Tmax in Sprague-Dawley rat at 10 mg/kg, po; type: ADME, organism-based; conditions: in vivo
[4] = Oral bioavailability in Sprague-Dawley rat at 10 mg/kg; type: ADME, organism-based; conditions: in vivo
[5] = AUC in Sprague-Dawley rat at 10 mg/kg, po; type: ADME, organism-based; conditions: in vivo
[6] = Volume of distribution at steady state in Sprague-Dawley rat at 0.5 mg/kg, iv; type: ADME, organism-based; conditions: in vivo, read-out: Vdss
[7] = Clearance in Sprague-Dawley rat at 0.5 mg/kg, iv; type: ADME, organism-based; conditions: in vivo
Cytochrome P450 2C9 = Cytochrome P450 2C9 (Homo sapiens, UniProt P11712); assay: Inhibition of CYP2C9 (unknown origin); type: ADME
[8] = target: T2, Diacylglycerol O-acyltransferase 1 (Homo sapiens, UniProt O75907); assay: Inhibition of human DGAT1 expressed in insect cell membranes using diacylglycerol/[14C]-oleoyl-CoA as substrate preincubated for 10 mins followed by [14C]-oleoyl-CoA addition measured after 15 mins by scintillation counting method
T2 sequence (O75907 whole entry): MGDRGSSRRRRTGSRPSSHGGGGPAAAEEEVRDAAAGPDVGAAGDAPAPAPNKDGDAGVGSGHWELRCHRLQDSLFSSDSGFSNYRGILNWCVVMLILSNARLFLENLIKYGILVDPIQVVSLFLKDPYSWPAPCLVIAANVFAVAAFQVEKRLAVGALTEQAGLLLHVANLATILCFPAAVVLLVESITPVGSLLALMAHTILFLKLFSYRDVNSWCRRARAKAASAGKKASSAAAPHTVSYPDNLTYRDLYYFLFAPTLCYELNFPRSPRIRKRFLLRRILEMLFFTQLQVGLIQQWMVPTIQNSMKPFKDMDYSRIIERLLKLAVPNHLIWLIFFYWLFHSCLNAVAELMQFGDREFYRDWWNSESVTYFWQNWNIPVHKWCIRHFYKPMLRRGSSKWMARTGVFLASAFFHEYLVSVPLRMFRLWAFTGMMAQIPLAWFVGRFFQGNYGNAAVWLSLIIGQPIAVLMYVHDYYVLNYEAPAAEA

Cytochrome P450 1A2 = target: T3, Cytochrome P450 1A2 (Homo sapiens, UniProt P05177); assay: Inhibition of CYP1A2 (unknown origin); type: ADME
T3 sequence (P05177 whole entry): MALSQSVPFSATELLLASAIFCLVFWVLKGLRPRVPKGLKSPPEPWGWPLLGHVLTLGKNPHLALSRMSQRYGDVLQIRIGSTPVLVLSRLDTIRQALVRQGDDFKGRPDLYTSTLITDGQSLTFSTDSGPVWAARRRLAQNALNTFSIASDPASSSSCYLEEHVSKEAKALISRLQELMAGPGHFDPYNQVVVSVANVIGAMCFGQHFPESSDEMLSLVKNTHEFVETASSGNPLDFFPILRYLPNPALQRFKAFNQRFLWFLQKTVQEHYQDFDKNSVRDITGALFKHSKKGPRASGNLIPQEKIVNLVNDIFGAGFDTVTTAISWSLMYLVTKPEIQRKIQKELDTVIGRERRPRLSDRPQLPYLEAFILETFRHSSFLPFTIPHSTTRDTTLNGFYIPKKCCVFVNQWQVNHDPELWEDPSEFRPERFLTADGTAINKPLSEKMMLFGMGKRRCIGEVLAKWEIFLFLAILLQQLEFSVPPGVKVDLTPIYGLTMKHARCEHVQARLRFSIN

[9] = Cmax in CD1 mouse at 10 mg/kg, po; type: ADME, organism-based; design: dose 10 mg/kg, route oral; conditions: in vivo
[10] = Solubility of the compound at pH 7.4; type: physicochemical; conditions: buffer
Cytochrome P450 2D6 = Cytochrome P450 2D6 (Homo sapiens, UniProt P10635); assay: Inhibition of CYP2D6 (unknown origin); type: ADME
[11] = Volume of distribution at steady state in CD1 mouse at 0.5 mg/kg, iv; type: ADME, organism-based; conditions: in vivo, read-out: Vdss
[12] = Intrinsic clearance in mouse liver microsomes; type: ADME, microsome; conditions: read-out: CLH
[13] = Intrinsic clearance in human liver microsomes; type: ADME, microsome; conditions: read-out: CLH
Mus musculus [14] = assay: Antiobesity activity in diet-induced obesity C57BL/6 mouse model assessed as reduction in body weight at 10 mg/kg administered via oral gavage as bid for 7 days; type: functional, organism-based
[15] = target: T2, Diacylglycerol O-acyltransferase 1; assay: Inhibition of DGAT1 in human HEK293 cells using [13C18]oleic acid as substrate assessed as decrease in triacylglycerol synthesis preincubated for 15 mins followed by [13C18]oleic acid addition measured after 2 hrs by LC/MS/MS analysis; type: cell-based
[16] = target: T4, Diacylglycerol O-acyltransferase 2 (Homo sapiens, UniProt Q96PD7); assay: Inhibition of human DGAT2 expressed in insect cell membranes using diacylglycerol/[14C]-oleoyl-CoA as substrate preincubated for 10 mins followed by [14C]-oleoyl-CoA addition measured after 15 mins by scintillation counting method
T4 sequence (Q96PD7 whole entry): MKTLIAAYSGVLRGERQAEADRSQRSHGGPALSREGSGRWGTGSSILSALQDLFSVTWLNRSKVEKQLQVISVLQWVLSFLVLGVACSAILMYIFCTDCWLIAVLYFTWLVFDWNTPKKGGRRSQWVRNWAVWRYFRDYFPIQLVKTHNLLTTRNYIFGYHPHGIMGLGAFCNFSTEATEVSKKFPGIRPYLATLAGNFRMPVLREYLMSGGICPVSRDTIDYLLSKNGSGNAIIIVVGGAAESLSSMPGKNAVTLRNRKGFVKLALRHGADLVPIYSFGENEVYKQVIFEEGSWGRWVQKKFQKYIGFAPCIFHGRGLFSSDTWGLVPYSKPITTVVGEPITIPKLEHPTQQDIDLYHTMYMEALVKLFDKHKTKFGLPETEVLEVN

Mus musculus [17] = assay: Inhibition of corn oil-induced plasma triacylglycerol excursion in CD1 mouse at 0.3 to 1 mg/kg administered via oral gavage 30 mins prior to corn oil challenge measured at 2 hrs by lipid tolerance test; type: functional, organism-based
Cytochrome P450 2C19 = Cytochrome P450 2C19 (Homo sapiens, UniProt P33261); assay: Inhibition of CYP2C19 (unknown origin); type: ADME
Mus musculus [18] = assay: Antiobesity activity in diet-induced obesity C57BL/6 mouse model assessed as reduction in cumulative food intake at 10 mg/kg administered via oral gavage as bid for 7 days relative to vehicle-treated control; type: functional; design: scale not given: the % may be the effect or the level left
[19] = Tmax in CD1 mouse at 10 mg/kg, po; type: ADME, organism-based; conditions: in vivo
[20] = Metabolic stability in human liver microsomes assessed as parent compound remaining measured at 60 mins; type: ADME, microsome; conditions: read-out: Stability
[21] = Protein binding in human plasma; type: ADME, cell-free; conditions: read-out: PPB (converted)
[22] = Metabolic stability in mouse liver microsomes assessed as parent compound remaining measured at 60 mins; type: ADME, microsome; conditions: read-out: Stability
[23] = Oral bioavailability in CD1 mouse at 10 mg/kg; type: ADME, organism-based; conditions: in vivo
Cytochrome P450 3A4 = Cytochrome P450 3A4 (Homo sapiens, UniProt P08684); assay: Inhibition of CYP3A4 (unknown origin); type: ADME
[24] = AUC in CD1 mouse at 10 mg/kg, po; type: ADME, organism-based; conditions: in vivo
[25] = Clearance in CD1 mouse at 0.5 mg/kg, iv; type: ADME, organism-based; conditions: in vivo
Mus musculus [26] = assay: Hepatotoxicity in diet-induced obesity C57BL/6 mouse model at 10 mg/kg administered via oral gavage as bid for 7 days; type: toxicity, organism-based; conditions: in vivo, 168 h

Sequence of Cytochrome P450 3A4 (P08684 whole entry): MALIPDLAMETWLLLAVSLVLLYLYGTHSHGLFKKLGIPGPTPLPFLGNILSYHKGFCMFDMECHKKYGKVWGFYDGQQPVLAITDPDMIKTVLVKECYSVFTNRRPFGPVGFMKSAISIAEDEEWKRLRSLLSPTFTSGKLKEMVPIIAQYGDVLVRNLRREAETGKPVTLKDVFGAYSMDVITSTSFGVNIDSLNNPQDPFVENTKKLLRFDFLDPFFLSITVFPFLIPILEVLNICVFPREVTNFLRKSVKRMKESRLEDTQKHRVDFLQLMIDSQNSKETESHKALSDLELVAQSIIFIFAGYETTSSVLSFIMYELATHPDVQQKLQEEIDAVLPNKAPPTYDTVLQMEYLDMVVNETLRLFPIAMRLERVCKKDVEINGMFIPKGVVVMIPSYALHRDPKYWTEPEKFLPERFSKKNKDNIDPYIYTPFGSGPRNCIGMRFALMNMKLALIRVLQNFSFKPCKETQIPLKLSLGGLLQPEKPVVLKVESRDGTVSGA
Sequence of Cytochrome P450 2D6 (P10635 whole entry): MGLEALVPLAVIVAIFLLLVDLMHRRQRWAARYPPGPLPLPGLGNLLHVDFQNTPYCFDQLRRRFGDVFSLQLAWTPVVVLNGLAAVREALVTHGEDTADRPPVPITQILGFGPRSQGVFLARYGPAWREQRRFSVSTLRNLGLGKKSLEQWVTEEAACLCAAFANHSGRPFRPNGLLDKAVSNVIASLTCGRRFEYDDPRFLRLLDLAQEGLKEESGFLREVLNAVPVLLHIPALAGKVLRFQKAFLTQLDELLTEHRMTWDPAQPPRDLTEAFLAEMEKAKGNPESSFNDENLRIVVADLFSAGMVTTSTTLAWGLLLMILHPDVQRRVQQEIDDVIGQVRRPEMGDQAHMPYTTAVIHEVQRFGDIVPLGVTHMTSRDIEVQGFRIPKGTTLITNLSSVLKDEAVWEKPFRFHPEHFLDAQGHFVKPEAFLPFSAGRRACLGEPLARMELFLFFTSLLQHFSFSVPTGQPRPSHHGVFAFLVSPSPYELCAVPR
Sequence of Cytochrome P450 2C19 (P33261 whole entry): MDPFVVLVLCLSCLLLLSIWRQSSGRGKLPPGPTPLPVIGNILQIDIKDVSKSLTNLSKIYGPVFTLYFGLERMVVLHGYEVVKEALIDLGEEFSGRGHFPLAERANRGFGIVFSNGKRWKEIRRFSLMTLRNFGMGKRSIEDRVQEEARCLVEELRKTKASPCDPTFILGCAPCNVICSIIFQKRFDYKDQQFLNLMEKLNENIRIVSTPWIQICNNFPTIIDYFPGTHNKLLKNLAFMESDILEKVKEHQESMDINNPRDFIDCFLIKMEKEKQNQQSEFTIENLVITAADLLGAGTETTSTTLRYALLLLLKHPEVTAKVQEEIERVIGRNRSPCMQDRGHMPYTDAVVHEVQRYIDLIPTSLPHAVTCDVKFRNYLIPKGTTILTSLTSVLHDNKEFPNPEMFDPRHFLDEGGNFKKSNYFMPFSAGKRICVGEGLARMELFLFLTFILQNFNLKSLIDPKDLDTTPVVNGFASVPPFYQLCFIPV
Sequence of Cytochrome P450 2C9 (P11712 whole entry): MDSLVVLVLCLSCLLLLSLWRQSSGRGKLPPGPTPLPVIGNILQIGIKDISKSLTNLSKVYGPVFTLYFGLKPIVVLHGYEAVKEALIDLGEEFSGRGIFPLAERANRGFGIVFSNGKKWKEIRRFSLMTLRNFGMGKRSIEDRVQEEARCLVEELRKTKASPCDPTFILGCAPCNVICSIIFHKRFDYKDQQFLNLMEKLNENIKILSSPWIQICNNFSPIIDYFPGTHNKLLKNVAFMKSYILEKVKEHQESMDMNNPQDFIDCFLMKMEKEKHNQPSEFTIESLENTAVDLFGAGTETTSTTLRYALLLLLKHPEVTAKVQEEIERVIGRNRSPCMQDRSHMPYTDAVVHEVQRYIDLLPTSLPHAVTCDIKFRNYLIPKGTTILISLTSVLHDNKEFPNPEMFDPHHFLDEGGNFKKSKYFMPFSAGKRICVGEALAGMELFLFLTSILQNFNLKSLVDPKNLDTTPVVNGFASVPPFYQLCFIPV

IC50 [1]: 3760 nM
Compound: Cc1cc(C#CC(C)(C)CC(=O)O)ccc1N1CCOc2ncnc(N)c2C1=O

IC50 [1]: 11 nM
Compound: Cc1cc(N2CCOc3ncnc(N)c3C2=O)cc(F)c1C#CC(C)(C)CC(=O)O

IC50 [1]: 58 nM
Compound: CC(C)(C#Cc1ccc(N2CCOc3ncnc(N)c3C2=O)cc1F)CC(=O)O

Cmax [2]: 2160 ng/mL | Tmax [3]: 30 min | bioavailability [4]: 42% | AUC [5]: 4100 ng·h/mL | Vd [6]: 1.06 L/kg | clearance [7]: 14.8 mL/min/kg
Compound: CC(C)(C#Cc1ccc(N2CCOc3ncnc(N)c3C2=O)cc1)CC(=O)O

IC50 [1]: 14 nM
Compound: Cc1cc(N2CCOc3ncnc(N)c3C2=O)cc(Cl)c1C#CC(C)(C)CC(=O)O

IC50 [1]: 12 nM
Compound: CCc1cc(N2CCOc3ncnc(N)c3C2=O)cc(CC)c1C#CC(C)(C)CC(=O)O

IC50 [1]: 26 nM
Compound: CC(C)(C#Cc1ccc(N2CCOc3ncnc(N)c3C2=O)cc1Cl)CC(=O)O

IC50 [1]: 682 nM
Compound: CCc1cc(N2CCOc3ncnc(N)c3C2=O)ccc1C#CC(C)(C)CC(=O)O

IC50 [1]: 12 nM
Compound: CCc1cc(N2CCOc3ncnc(N)c3C2=O)cc(C)c1C#CC(C)(C)CC(=O)O

IC50 [1]: 24 nM
Compound: CC(C)(C#Cc1ccc(N2CCOc3ncnc(N)c3C2=O)cc1C(F)(F)F)CC(=O)O

IC50 [1]: 728 nM
Compound: COc1cc(N2CCOc3ncnc(N)c3C2=O)ccc1C#CC(C)(C)CC(=O)O

IC50 [1]: 10 nM
Compound: CC(C)(C#Cc1c(Cl)cc(N2CCOc3ncnc(N)c3C2=O)cc1Cl)CC(=O)O

IC50 (Cytochrome P450 2C9): > 100000 nM | IC50 [8]: 21 to 28 nM | IC50 (Cytochrome P450 1A2): 27600 nM | Cmax [9]: 521 ng/mL | solubility [10]: 110 µM (≈ 44.9 µg/mL) | IC50 (Cytochrome P450 2D6): 27200 nM | Cmax [2]: 8700 ng/mL | Vd [11]: 2.44 L/kg | CLint scaled [12]: < 38 mL/min/kg | CLint scaled [13]: < 9.5 mL/min/kg | EC50 [15]: 26 nM | IC50 [1]: 12 nM | IC50 [16]: > 50000 nM | Tmax [3]: 30 min | IC50 (Cytochrome P450 2C19): 29700 nM | bioavailability [4]: 70% | Tmax [19]: 30 min | AUC [5]: 21000 ng·h/mL | remaining at 1 h [20]: 97.6% | fraction unbound [21]: 0.139 | Vd [6]: 1.12 L/kg | remaining at 1 h [22]: 97.9% | bioavailability [23]: 31% | IC50 (Cytochrome P450 3A4): 45500 nM | AUC [24]: 1250 ng·h/mL | clearance [7]: 4.76 mL/min/kg | clearance [25]: 39.3 mL/min/kg
Compound: Cc1cc(N2CCOc3ncnc(N)c3C2=O)cc(C)c1C#CC(C)(C)CC(=O)O
Activity (Mus musculus [14]): Active | inhibition (Mus musculus [17]): Active | Activity (Mus musculus [18]): 11% | Activity (Mus musculus [26]): Non-Toxic

IC50 [1]: 96 nM
Compound: COc1cc(N2CCOc3ncnc(N)c3C2=O)cc(C)c1C#CC(C)(C)CC(=O)O

IC50 [1]: 92 nM
Compound: CC(C)(C#Cc1ccc(N2CCOc3ncnc(N)c3C2=O)cc1OC(F)(F)F)CC(=O)O
